How the values were obtained:
MDAMB231 [1] = experiment: In vitro antiproliferative assay (MTT assay), breast cancer cell line; format: cell-based; settings: Homo sapiens, MDA-MB-231, 48 h, MTT assay, breast cancer MDAMB231, 48 hrs drug incubation
Procedure, shortened: (§1)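 Growth inhibition determined by MTT (0.5 mg/ml, 4 h) following 48 h compound treatment of cells plated 24 h earlier at 37 °C, 5% CO2.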

PC3 [2] = experiment: In vitro antiproliferative assay (MTT assay), prostate cancer cell line; format: cell-based; settings: MTT assay, prostate cancer PC3, 48 hrs drug incubation
Procedure, shortened: as §1

MDAMB231 [3] = experiment: Soft agar colony-formation assay, breast cancer; format: cell-based; settings: for anticancer activity in comparison with cisplatin, soft agar, breast cancer cell line: FIG. 51, MDAMB231; for IC50: Homo sapiens, MDA-MB-231, 168 h, Soft Agar Assay, 1 week, Alamar Blue
Method: (§2) The Soft Agar Colony-formation Assay is an anchorage-independent growth assay in soft agar, which is one of the most stringent assays for detecting malignant transformation of cells. For this assay, malignant cells are cultured with appropriate controls in soft agar medium for 1-2 weeks. Following this incubation period, formed colonies can either be analyzed morphologically using cell stain and quantifying the number of colonies formed.
(§3) Briefly, for Soft Agar Assay a mixture of 50 ul of 2× medium (taken appropriately as per cell line) and 50 ul of 1.2% Bacto Agar were plated on to each well of 96 well micro titer assay plate. 10 ul of cells (of specific plating efficiency pre standardized for respective cell line) were mixed with 20 ul of 2× medium and 30 ul of 0.8% of Bacto Agar and 1.6 ul of drug (of appropriate concentration) in a vial and transferred to the solidified pre layers of the assay plates. The cells were then allowed to grow and form colonies at 37° C. and 5% CO2 for 1 week. An intermittent feeding with 50 ul of appropriate 2× medium was performed after 3 days of experimental set up. 16 ul of Alamar Blue (1.5 mg/ml) was then added to all the wells to quantify the developed colonies. The plates were incubated for 24 hrs at 37° C. Absorbance was then measured at 630 nm. XY graph of log Percent viability was then plotted against log drug concentration.
(§4) Following plating efficiencies were standardized for Soft Agar Assay: […]

PC3 [4] = experiment: Soft agar colony-formation assay, prostate cancer; format: cell-based; settings: for anticancer activity in comparison with cisplatin, soft agar, prostate cancer cell line: FIG. 52, PC3; for IC50: Homo sapiens, PC-3, 168 h, Soft Agar Assay, 1 week, Alamar Blue
Method: as §2, §3, §4

Human lymphocytes = experiment: Lymphocyte assay (MTT on normal cells); format: cell-based; settings: Lymphocyte; human peripheral blood lymphocytes, MTT procedure
Method: Human lymphocytes were isolated from the peripheral blood. A pure population of lymphocytes was obtained based on differential centrifugation, in which diluted defibrinated blood was layered on a solution of sodium diatrizoate and polysucrose (HiSep LSM 1077) and centrifuged at low speeds for 30 mins.
Procedure: The separation of lymphocytes from fresh defibrinated blood was performed by the procedure described below: • 1. Diluted defibrinated fresh blood was overlaid gradually on (HiSeP LSM1077) and centrifuged at low speed for 30 mins. • 2. The lymphocyte layer (the buffy coat) was carefully removed in a new collection tube. • 3. The buffy coat was given another wash, by the diluent buffer Dulbecco's phosphate buffered saline (D.P.B.S) • 4. The supernatant was discarded and the pellet was resuspended in D.P.B.S. • 5. The viability of cells was checked by Haemocytometer. • 6. Cells with purity and viability of more than 95% were taken for the experiment. • 7. Purified lymphocytes were diluted at a concentration of 0.7 million/ml with sterile D.P.B.S and MTT procedure was performed exactly as described earlier.

MDAMB231 [5] = experiment: Wound Healing Assay (WHA), breast cancer cell line; format: cell-based; settings: IC10 conc. of compound
Method: (§5) Wound Healing Assay (WHA) determines the ability of cancer stem cells to heal the wound formed in a confluent monolayer.
(§6) Procedure: 0.35×10^6 cells were plated in each well of 6 Tissue Culture well plates. The plate was incubated for 48 hrs at 37° C., 5% CO2. […] IC10 conc. of the respective compound was added into each well. The plates were incubated at 37° C., 5% CO2 and the width of scratch was measured at various time intervals such as 6, 24 and 48 hours. Average of 3 distances were taken for each time point using IS camera Measure. A plot of average width of scratch in micrometer was plotted against the time interval after treatment.

PC3 [6] = experiment: Wound Healing Assay (WHA), prostate cancer cell line; format: cell-based; settings: IC10 conc. of compound
Method: as §5, §6

MDAMB231 [7] = experiment: In vitro sphere-forming assay (cancer stem cells), Mammosphere media; settings: for viability at 0.0025 µM / viability at 0.025 µM / viability at 0.25 µM / viability at 2.5 µM / viability at 25 µM: Homo sapiens, MDA-MB-231, read-out: % Viability of spheres (MDAMB231); for 3D sphere count of MDAMB231: Mammosphere media, 2000 cells/well, n = 6 ± S.D
PC3 [8] = experiment: In vitro sphere-forming assay (cancer stem cells), Prostosphere media; settings: for viability at 0.0025 µM / viability at 0.025 µM / viability at 0.25 µM / viability at 2.5 µM / viability at 25 µM: Homo sapiens, PC-3, read-out: % Viability of spheres (PC3); for 3D sphere count of PC3: Prostosphere media, 2000 cells/well, n = 6 ± S.D
Method: In Vitro Sphere-forming Assay: Sphere assay measures the ability of cancer stem cells (CSCs) to form spheres in specially designed serum-free medium.
Prostosphere Media Preparation (For 100 mL):1 g methyl cellulose autoclaved with magnetic stirrer, 100 mL plain media (Prostate Epithelial Basal Medium) was added and dissolved, under magnetic stirring. After complete dissolution, Insulin-40 μL, B27-2 mL, EGF-80 μL, Penstrep-1 ml was added.
Procedure—The cells were trypsinised and made into single-cell suspension by passing through cell strainers (100 μl and 40 μl, respectively), The cells were diluted at a concentration of 2000 cells/100 μL and suspended in either Mammosphere (for breast cell lines) or Prostosphere (for prostate cell lines). 100 μL of this suspension was added into each well of 96-well suspension plates and incubated at 37° C., 5% CO2 for 24 hrs. Appropriate concentrations of the drugs (2 μL) were added into respective wells with 100 μL of stem cell culture medium. Plates were incubated at 37° C., 50 CO2 for 72 hrs. After incubation, 2.5 μL of the respective drug concentration and 50 μL of stem cell culture medium were added into each well and the plates were further incubated at 37° C., 50% CO2 for 72 hrs. 3 μL of the respective drug concentration was added with 50 μL of stem cell culture medium again after incubation and plates were reincubated for 72 hrs at 37° C., 50 CO2. Number of primary spheres formed for each concentration were counted. The spheres were converted to 0 viability of spheres compared to untreated (Growth Control with DMSO, GCD).

SMILES | IC50 (MDAMB231 [1]) [µM] | anticancer activity in comparison with cisplatin, soft agar, breast cancer cell line (MDAMB231 [3]) | IC50 (MDAMB231 [3]) [µM] | anticancer activity in comparison with cisplatin, soft agar, prostate cancer cell line (PC3 [4]) | IC50 (PC3 [4]) [µM] | IC50 (Human lymphocytes) [µM] | viability at 0.0025 µM (MDAMB231 [7]) [%] | viability at 0.025 µM (MDAMB231 [7]) [%] | viability at 0.25 µM (MDAMB231 [7]) [%] | viability at 2.5 µM (MDAMB231 [7]) [%] | viability at 25 µM (MDAMB231 [7]) [%] | 3D sphere count of MDAMB231 (MDAMB231 [7]; drug 0.0025 uM) | 3D sphere count of MDAMB231 (MDAMB231 [7]; drug 0.025 uM) | 3D sphere count of MDAMB231 (MDAMB231 [7]; drug 0.25 uM) | 3D sphere count of MDAMB231 (MDAMB231 [7]; drug 2.5 uM) | 3D sphere count of MDAMB231 (MDAMB231 [7]; drug 25 uM) | viability at 0.0025 µM (PC3 [8]) [%] | viability at 0.025 µM (PC3 [8]) [%] | viability at 0.25 µM (PC3 [8]) [%] | viability at 2.5 µM (PC3 [8]) [%] | other results
COc1ccc(OC2=CC(=O)c3c(OCCN4CCOCC4)cccc3C2=O)cc1 [Formula 43, 5-(2-morpholinoethoxy)-2-(4-methoxyphenoxy) naphthalene-1,4-dione] | 1.01 | higher anticancer activity in comparison with cisplatin | 0.662 | higher anticancer activity in comparison with cisplatin | 0.415 | 10.8 | 82 | 61 | 46 | 33 | 21 | 82(±4) | 61(±3) | 46(±3) | 33(±4) | 21(±3) | 75 | 57 | 46 | 30 | IC50 (PC3 [2]): 0.5 µM; % inhibition of Wound Healing for Breast Cancer Cell line (MDAMB231) after 48 hrs (MDAMB231 [5]): 53.3%; % inhibition of Wound Healing for Prostate Cancer Cell line (PC3) after 48 hrs (PC3 [6]): 50.47%; viability at 25 µM (PC3 [8]): 21%; 3D sphere count of PC3 (PC3 [8]; drug 0.0025 uM): 75(±4); 3D sphere count of PC3 (PC3 [8]; drug 0.025 uM): 57(±5); 3D sphere count of PC3 (PC3 [8]; drug 0.25 uM): 46(±4); 3D sphere count of PC3 (PC3 [8]; drug 2.5 uM): 30(±4); 3D sphere count of PC3 (PC3 [8]; drug 25 uM): 21(±3)
CCN(CC)CCNC(=O)COc1cccc2c1C(=O)C=C(Nc1ccc(OC)cc1)C2=O [Formula 72] | 1.01 | higher anticancer activity in comparison with cisplatin | 3.72 | higher anticancer activity in comparison with cisplatin | 0.6 | 33 | 84 | 67 | 48 | 33 | 19 | 60(±3) | 48(±3) | 34(±3) | 24(±2) | 14(±3) | 81 | 63 | 46 | 36 | IC50 (PC3 [2]; Homo sapiens, PC-3, 48 h): 0.743 µM; viability at 25 µM (PC3 [8]): 16%; 3D sphere count of PC3 (PC3 [8]; drug 0.0025 uM): 65(±3); 3D sphere count of PC3 (PC3 [8]; drug 0.025 uM): 51(±3); 3D sphere count of PC3 (PC3 [8]; drug 0.25 uM): 37(±3); 3D sphere count of PC3 (PC3 [8]; drug 2.5 uM): 29(±2); 3D sphere count of PC3 (PC3 [8]; drug 25 uM): 13(±3)

Reference: patent US20240018132A1, “5-HYDROXY-1,4-NAPHTHALENEDIONE FOR USE IN THE TREATMENT OF CANCER” (GODAVARI BIOREFINERIES LIMITED, priority 2020, published 2024)
